Legend:
BV-2 microglia cells [1] = test: ROS assay (fluorometric intracellular ROS kit); type: cell-based, murine; conditions: BV-2 cells, 24 h treatment, fluorescence, n = 12
Description: Microglia activation is accompanied by an increased reactive oxygen species (ROS) production. The ROS assay was performed using a fluorometric intracellular ROS kit according to the supplier’s protocol (Sigma-Aldrich, Diegem, Belgium). In brief, 4 × 10^4 cells/well were seeded in a black 96-well plate. Four hours post seeding, 100 µL of master reaction mix was added to the wells and incubated for 1 h after which cells were treated with PapRIV dissolved in PBS for 24 h. Fluorescence intensity was measured using an EnVision fluorometric plate reader at λex = 492/λem = 535 nm (Perkin Elmer, Zaventem, Belgium).

Capillary depletion = type: in vivo, ICR-CD-1 mice; conditions: 125I-labelled, i.v., mice, 10 min after injection, n = 2
Description: Briefly, 0.1 µmol of the lyophilized peptide was dissolved in 100 µL of phosphate buffer (pH 7.4, 25 mM). A Iodo-Gen coated tube (Thermo Scientific, Merelbeke, Belgium) was first of all rinsed with 1 mL of phosphate buffer. Subsequently, 50 µL of sodium iodide solution (1.1 µmol/mL) and 1 mCi of Na^125I solution (Perking Elmer, Zaventem, Belgium) were transferred into this Iodo-Gen coated tube. The oxidation reaction was allowed to proceed for six minutes at room temperature, after which the iodonium solution was transferred to 50 µL of peptide solution (1 mM). The iodination reaction of the peptide was allowed to proceed for another six minutes at room temperature. Finally, the iodinated peptide was purified using a silver filter (Thermo Scientific, Merelbeke, Belgium).
We performed capillary depletion to determine whether the peptides, taken up by the brain, completely crossed the capillary wall into the tissue rather than just being trapped by and in the endothelium. […] Subsequently, the brain was collected, weighed and the radioactivity measured in the gamma counter for 5 min. […] The resulting solution was weighed and centrifuged in a swinging bucket rotor at 5400g for 30 min at 4 °C, after measuring the radioactivity in the gamma counter. Pellet (capillaries) and supernatant (parenchyma and fat tissues) were also collected, weighed and measured in a gamma counter. […]

Caco-2 monolayer = test: Caco-2 assay (apparent permeability); type: in vitro ADME
Description: Caco-2 (Sigma-Aldrich, Diegem, Belgium) cells were grown in DMEM supplemented with 10% FBS, 1% NEAA and 1% penicillin/streptomycin solution. A total of 3 × 10^5 cells per filter were seeded in a 12-well plate and left for differentiation during 21–29 days (medium change every other day). Monolayer formation was checked by measuring the TEER values which should be above 0.30 kΩ × cm^2 [72]. After washing with Hank’s balanced salt solution, 400 µL of a 1 µM peptide solution was added to the apical side of the filter. After 30, 60, 90 and 120 min, 100 µL of the acceptor compartment was taken for UPLC-MS/MS analysis (Supplementary method S2). Linear curve fitting was used to calculate the apparent permeability coefficient (Papp), as sink conditions were achieved.
The reduction in acceptor concentration was also taken into account after every sampling. The cumulative amount in the acceptor compartment is defined as:2 Cumulativeamount=CrnVr+∑k=1n-1CrkVs with Crk = concentration at sample point k in acceptor compartment; Vr = volume in the receiver chamber; Vs = volume sampled; n = times sampled. […]
Supplementary method S2: UPLC-MS parameters Caco-2 assay
Aliquots of the acceptor compartment are analyzed using the following validated UPLC-
Column Acquity UPLC BEH C18 (2.1 × 100 mm, 1.7 µm) protected with a suitable guard
Sample temperature: 10°C.
A: 93/2/5 (v/v) H2O + ACN + DMSO + 0.1% FA
B: 2/93/5 (v/v) H2O + ACN + DMSO + 0.1% FA
Table 1: Quantifier of PapRIV.
Peptide Mother ion Daughter ion Collision energy MS
Injection volume: 10.0 µL
Table 2: Gradient program
Time (min) Mobile phase A (%) Mobile phase B (%)

BV-2 microglia cells [2] = test: IL-6 and TNFα determination (ELISA); type: cell-based, murine; conditions: BV-2 cells, increasing concentrations, 20 h, ELISA of cell-free supernatant, n = 6
Description: BV-2 cells were a kind gift from Prof. Alba Minelli and were grown in RPMI medium supplemented with 10% fetal bovine serum (FBS) and 1% penicillin-streptromycin solution (Life Technologies, Belgium). The cells were cultured in culture flasks (Greiner, Belgium) in an incubator set at 37 °C and 5% CO2. When confluent, cells were detached using a cell scraper and diluted 1:20 approximately every 4 days. Experiments were performed in serum-free DMEM without phenol red.
To investigate the microglia activating properties of the peptide, IL-6 and TNFα levels were determined in cell-free supernatants of BV-2 microglia cells after treatment. BV-2 cells (2 × 10^5 cells/well) were seeded in 24-well plates and treated with peptide for 20 h. ELISA was performed according to the supplier’s protocol (eBioscience, Vienna, Austria). Briefly, after incubation with biotinylated detection antibody, avidin-HRP conjugate and subsequently chromogenic tetramethylbenzidine (TMB) substrate were added. Absorbance was measured at 450 nm and 570 nm using the Multiskan Ascent 354 microplate reader (Thermofisher, Waltham, USA). Concentrations were determined using the standard curve generated using known concentrations of TNFα and IL-6.

## SDLPFEH [PapRIV, heptapeptide (SDLPFEH) quorum sensing peptide originating from the Bacillus cereus group; synthetic, purchased from GL Biochem]
BV-2 microglia cells [1]
  intracellular ROS: increase
Capillary depletion
  Capillary fraction: 13.08%
  Parenchymal fraction: 86.92%
Caco-2 monolayer; Caco-2, 4 °C, compared with Papp at 37 °C, n = 6 (Supplementary Fig. S1)
  Papp at 4 °C: comparable
Caco-2 monolayer; Caco-2, apical to basolateral, 1 µM peptide (400 µL) after washing with Hank's balanced salt solution, cells differentiated 21–29 days, TEER above 0.30 kΩ × cm^2, acceptor sampled 30, 60, 90, 120 min, 37 °C, UPLC-MS/MS, linear fit, n = 6
  Papp: 1.37 ± 0.21 × 10^–9 cm/s
Caco-2 monolayer; Caco-2, basolateral to apical, compared with apical-basolateral Papp, n = 6 (Supplementary Fig. S1)
  Papp in the opposite basolateral-apical direction: comparable
Caco-2 monolayer; Caco-2 assay, 1 µM, 120 min
  mass balance: < 2%
BV-2 microglia cells [2]
  IL-6 production: induced
  TNFα production: induced
